One experiment concerns the target Genome polyprotein (Coxsackievirus B3 (strain Nancy), UniProt P03313). The experiment is described as follows: Inhibition of Coxsackievirus B3 Nancy 3Cpro.
The next experiment deals with Replicase polyprotein 1a (Severe acute respiratory syndrome-related coronavirus, UniProt P0C6U8). Kind of experiment: Inhibition of SARS coronavirus 3CLpro using Dabcyl-KTSAVLQ/SGFRKME-Edans as substrate preincubated for 30 mins followed by substrate addition by FRET assay.
Experiment [1] in a line: Inhibition of norovirus 3CLpro using Edans-DFHLQ/GP-Dabcyl as substrate preincubated for 30 mins followed by substrate addition by FRET assay.

Sequence of Genome polyprotein (P03313 1541-1723 limits assumed): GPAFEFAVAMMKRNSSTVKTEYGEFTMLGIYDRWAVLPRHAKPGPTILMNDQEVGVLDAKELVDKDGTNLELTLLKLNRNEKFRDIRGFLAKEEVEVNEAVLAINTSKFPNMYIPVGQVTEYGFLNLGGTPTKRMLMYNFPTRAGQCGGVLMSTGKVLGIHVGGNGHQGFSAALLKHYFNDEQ

Consider `CC(C)C[C@@H]1NC(=O)[C@@H](NC(=O)OCc2ccccc2)Cc2cn(nn2)CCCNC(=O)CC[C@@H](C=O)NC1=O`, for which the IC50 at Genome polyprotein worked out at 1.8 µM; against Replicase polyprotein 1a it was 15.5 µM; in experiment [1], 5.1 µM.

The record behind these values is ChEMBL document CHEMBL2396618, “Macrocyclic inhibitors of 3C and 3C-like proteases of picornavirus, norovirus, and coronavirus” (Bioorg Med Chem Lett, 2013).
